“And” between values parts separate entries of the source, which are not always exact repeats. Equal entries are not always repeated.
Assays:
full-length BTK protein = target: T1, full-length BTK protein (Homo sapiens, UniProt Q06187); experiment: BTK binding assay (Kd, Eurofins DiscoverX); details: for Kd: full-length BTK, standard assay buffer in the presence of DTT (6 mM) (DiMe compounds: BTK_+DTT per Supplementary Data 1), duplicates
T1 construct: Kd was measured using the full-length BTK protein by Eurofins DiscoverX; T7 phage fusion or DNA tag for qPCR (generic vendor protocol); purchased Eurofins DiscoverX
T1 sequence (Q06187 whole entry, the tested form may be a part): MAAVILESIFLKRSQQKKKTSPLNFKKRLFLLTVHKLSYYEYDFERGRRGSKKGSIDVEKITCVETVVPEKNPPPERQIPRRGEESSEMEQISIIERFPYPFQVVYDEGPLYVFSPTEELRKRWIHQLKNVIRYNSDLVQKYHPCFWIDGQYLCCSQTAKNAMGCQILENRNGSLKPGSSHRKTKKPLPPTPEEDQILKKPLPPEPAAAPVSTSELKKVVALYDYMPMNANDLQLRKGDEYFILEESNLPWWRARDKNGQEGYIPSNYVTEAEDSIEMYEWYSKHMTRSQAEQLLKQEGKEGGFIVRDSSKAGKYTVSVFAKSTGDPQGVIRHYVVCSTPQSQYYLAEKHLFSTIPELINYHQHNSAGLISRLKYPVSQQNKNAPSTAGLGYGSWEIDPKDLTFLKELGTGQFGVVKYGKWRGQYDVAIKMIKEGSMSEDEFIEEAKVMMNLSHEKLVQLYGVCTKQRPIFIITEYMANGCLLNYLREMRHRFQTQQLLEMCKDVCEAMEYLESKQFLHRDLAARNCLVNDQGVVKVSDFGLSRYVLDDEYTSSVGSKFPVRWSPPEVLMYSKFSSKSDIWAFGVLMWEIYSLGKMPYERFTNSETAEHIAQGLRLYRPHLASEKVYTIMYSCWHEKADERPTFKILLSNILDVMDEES
Procedure: The dissociation equilibrium constant Kd was measured using the full-length BTK protein by Eurofins DiscoverX according to the following protocol: kinase-tagged T7 phage strains were prepared in an E. coli host derived from the BL21 strain. E. coli were grown to log-phase and infected with T7 phage and incubated with shaking at 32 °C until lysis. The lysates were centrifuged and filtered to remove cell debris. The remaining kinases were produced in HEK-293 cells and subsequently tagged with DNA for qPCR detection. […] The liganded beads were blocked with excess biotin and washed with blocking buffer (SeaBlock (Pierce), 1% BSA, 0.05% Tween 20, 1 mM DTT) to remove unbound ligand and to reduce non-specific binding. […] Test compounds were prepared as 111X stocks in 100% DMSO. […] The compounds were then diluted directly into the assays such that the final concentration of DMSO was 0.9%. All reactions performed in polypropylene 384-well plate. Each was a final volume of 0.02 mL. […] The kinase concentration in the eluates was measured by qPCR. For kinase-binding constant determination, an 11-point 3-fold serial dilution of each test compound was prepared in 100% DMSO at 100x final test concentration and subsequently diluted to 1x in the assay (final DMSO concentration = 1%). […] Binding constants (Kd values) were calculated with a standard dose-response curve using the Hill equation: Response=Background+Signal−Background/1+KdHillSlope/Dose^HillSlope
The Hill Slope was set to −1. Curves were fitted using a non-linear least square fit with the Levenberg-Marquardt algorithm.

BTK-NanoLuc fusion = target: T2, BTK-NanoLuc fusion (Homo sapiens, UniProt Q06187); experiment: NanoBRET BTK in-cell target engagement assay; type: cell-based; details: for IC50: HEK-293 cells, BTK tracer 1.0 µM, Table 1 / Fig. 3c, triplicates, read-out: BTK TE IC50,TE; for K′P,D (relative intracellular accumulation coefficient): Kd (BTK)/IC50,TE (BTK); for intracellular accumulation of RC-1 relative to the compound: from K′P,D values, BTK (Table 1)
T2 construct: host or cells: HEK 293T/17
T2 sequence (Q06187 whole entry, the tested form may be a part): as above
Procedure: The target engagement assay for BTK or CRBN was from Promega (BTK kit, Cat. No. N2500; CRBN kit, Cat. No. CS1810C136) and was performed according to the manufacture’s instruction with some modifications. Briefly, HEK 293/T17 cells (ATCC) were transiently transfected with BTK-NanoLuc® fusion vector or NanoLuc®-CRBN fusion vector (Promega) in 0.125 M CaCl2 and 1x HBS. Forty-eight hours after transfection, the cells were resuspended in Opti-MEM medium (Life Technologies, Cat. No. 11058021) at the density of 2 × 10^5 cells per mL and were plated into 96-well plates (Corning, Cat. No. CLS3600). Cells were incubated with 1.0 µM (BTK) or 0.5 µM (CRBN) NanoBRET™ Tracer and serially diluted unlabeled BTK PROTAC compounds (from 10 to 0.0032 µM, 5-fold dilution) for 2 h at 37 °С with 5% CO2 in an incubator. After 2 h incubation, the 3X Nano-Glo® Substrate with NanoLuc® extracellular inhibitor were added to cells and developed for 3 min at room temperature. BRET signals were collected using a BioTek SYNERGY H1 microplate reader equipped with a 450/80-nm BP filter for donor emission and a 610-nm LP filter for acceptor emission. BRET Ratio was calculated with the equation: [(Acceptor sample/Donor sample)–(Acceptor no tracer control/Donor no tracer control)] × 1000. The IC50 of the compound against its BTK or CRBN tracer was calculated using GraphPad Prism software.

MOLM-14 cells = experiment: AlamarBlue cell viability assay, MOLM-14; details: Supplementary Figure 7, replicates
Procedure: The IC50 was calculated using GraphPad Prism software with a four-parameter dose-response curve fit.

| Structure (SMILES) | Kd (full-length BTK protein) | IC50 (BTK-NanoLuc fusion) | K′P,D (relative intracellular accumulation coefficient) (BTK-NanoLuc fusion) | intracellular accumulation of RC-1 relative to the compound (BTK-NanoLuc fusion) | Cell viability, MOML-14 (MOLM-14 cells; drug concentration 1.00E-05 M) | Cell viability, MOML-14 (MOLM-14 cells; drug concentration 1.60E-08 M) | Cell viability, MOML-14 (MOLM-14 cells; drug concentration 2.00E-06 M) | Cell viability, MOML-14 (MOLM-14 cells; drug concentration 3.20E-09 M) | Cell viability, MOML-14 (MOLM-14 cells; drug concentration 4.00E-07 M) | Cell viability, MOML-14 (MOLM-14 cells; drug concentration 6.40E-10 M) | Cell viability, MOML-14 (MOLM-14 cells; drug concentration 8.00E-08 M) | other results |
| --- | --- | --- | --- | --- | --- | --- | --- | --- | --- | --- | --- | --- |
| CN(CCCNC(=O)CNc1cccc2c1C(=O)N(C1CCC(=O)NC1=O)C2=O)C(C)(C)/C=C/C(=O)N1CCC[C@@H](n2nc(-c3ccc(Oc4ccccc4)cc3)c3c(N)ncnc32)C1 (stereo partly shown) [IRC-1-DiMe] | 0.011 µM | 0.38 µM | 2.9 × 10^−2 | 5 folds | – | – | – | – | – | – | – | Signal (full-length BTK protein; BTK_+DTT, compound concentration 0.0169 nM, listed as IRC-DiMe): 3.35E-05 and 3.58E-05; Signal (full-length BTK protein; BTK_+DTT, compound concentration 0.152 nM, listed as IRC-DiMe): 3.30E-05 and 3.12E-05; Signal (full-length BTK protein; BTK_+DTT, compound concentration 0.457 nM, listed as IRC-DiMe): 3.59E-05 and 3.58E-05; Signal (full-length BTK protein; BTK_+DTT, compound concentration 1.37 nM, listed as IRC-DiMe): 2.65E-05 and 2.79E-05; Signal (full-length BTK protein; BTK_+DTT, compound concentration 4.12 nM, listed as IRC-DiMe): 2.70E-05 and 2.48E-05; Signal (full-length BTK protein; BTK_+DTT, compound concentration 12.3 nM): 1.55E-05; Signal (full-length BTK protein; BTK_+DTT, compound concentration 37 nM, listed as IRC-DiMe): 6.57E-06 and 5.81E-06; Signal (full-length BTK protein; BTK_+DTT, compound concentration 111 nM, listed as IRC-DiMe): 1.60E-06 and 1.57E-06; Signal (full-length BTK protein; BTK_+DTT, compound concentration 333 nM, listed as IRC-DiMe): 2.79E-07 and 2.98E-07; Signal (full-length BTK protein; BTK_+DTT, compound concentration 1000 nM, listed as IRC-DiMe): 9.10E-08 and 8.06E-08; Signal (full-length BTK protein; BTK_-DTT, compound concentration 12.3 nM): 1.59E-05 |
| CN(C/C=C/C(=O)N1CCC[C@@H](n2nc(-c3ccc(Oc4ccccc4)cc3)c3c(N)ncnc32)C1)CCOCCNC(=O)CNc1cccc2c1C(=O)N(C1CCC(=O)NC1=O)C2=O (stereo partly shown) [IRC-3] | – | – | – | – | 33.9254 and 29.7755 and 25.5011 and 24.5466 and 23.5092 | 86.2431 and 93.4971 and 75.2168 and 81.4209 and 78.2878 | 87.4798 and 73.7851 and 74.2831 and 71.2537 and 90.0734 | 87.9238 and 88.7455 and 83.4544 and 84.1599 and 82.3547 | 86.2555 and 86.2763 and 83.0809 and 75.6111 and 85.2388 | 91.0487 and 98.1035 and 82.7281 and 78.682 and 82.9771 | 83.1182 and 78.35 (2×) and 67.9338 and 81.6492 | – |
| CN(C/C=C/C(=O)N1CCC[C@@H](n2nc(-c3ccc(Oc4ccccc4)cc3)c3c(N)ncnc32)C1)CCOCCNC(=O)CNc1ccc2c(c1)C(=O)N(C1CCC(=O)NC1=O)C2=O (stereo partly shown) [IRC-10] | – | – | – | – | 75.82 and 58.3378 and 68.0769 and 46.8499 and 54.5004 | 97.1244 and 98.6788 and 78.5933 and 90.154 and 64.4582 | 114.76 and 85.758 and 93.5542 and 68.0284 and 77.3303 | 99.6503 and 95.7157 and 83.0135 and 73.4201 and 68.8541 | 101.229 and 92.1212 and 88.8668 and 84.1065 and 86.0252 | 105.091 and 113.591 and 102.055 and 78.059 and 83.1593 | 111.6 and 85.6366 and 80.0019 and 73.9301 and 92.4127 | – |
| CN(CCCNC(=O)CNc1cccc2c1C(=O)N(C1CCC(=O)NC1=O)C2=O)C(C)(C)CC(C#N)C(=O)N1CCC[C@@H](n2nc(-c3ccc(Oc4ccccc4)cc3)c3c(N)ncnc32)C1 (stereo partly shown) [RNC-1-CN-DiMe] | 0.029 µM | 0.93 µM | 3.1 × 10^−2 | 5 folds | – | – | – | – | – | – | – | Signal (full-length BTK protein; BTK_+DTT, compound concentration 0.0169 nM, listed as RNC-CN-DiMe): 2.50E-05 and 2.61E-05; Signal (full-length BTK protein; BTK_+DTT, compound concentration 0.152 nM): 3.53E-05; Signal (full-length BTK protein; BTK_+DTT, compound concentration 0.457 nM, listed as RNC-CN-DiMe): 3.21E-05 and 2.23E-05; Signal (full-length BTK protein; BTK_+DTT, compound concentration 1.37 nM, listed as RNC-CN-DiMe): 2.55E-05 and 2.14E-05; Signal (full-length BTK protein; BTK_+DTT, compound concentration 4.12 nM, listed as RNC-CN-DiMe): 2.68E-05 and 2.21E-05; Signal (full-length BTK protein; BTK_+DTT, compound concentration 12.3 nM, listed as RNC-CN-DiMe): 2.12E-05 and 1.99E-05; Signal (full-length BTK protein; BTK_+DTT, compound concentration 37 nM, listed as RNC-CN-DiMe): 1.30E-05 and 9.19E-06; Signal (full-length BTK protein; BTK_+DTT, compound concentration 111 nM, listed as RNC-CN-DiMe): 5.21E-06 and 4.55E-06; Signal (full-length BTK protein; BTK_+DTT, compound concentration 333 nM, listed as RNC-CN-DiMe): 1.18E-06 and 1.22E-06; Signal (full-length BTK protein; BTK_+DTT, compound concentration 1000 nM, listed as RNC-CN-DiMe): 2.41E-07 and 2.28E-07; Signal (full-length BTK protein; BTK_-DTT, compound concentration 0.152 nM): 2.77E-05 |
| CN(CCCC(=O)N1CCC[C@@H](n2nc(-c3ccc(Oc4ccccc4)cc3)c3c(N)ncnc32)C1)CCOCCNC(=O)CNc1cccc2c1C(=O)N(C1CCC(=O)NC1=O)C2=O (stereo partly shown) [RNC-3] | – | – | – | – | 41.7673 and 39.1993 and 57.4163 and 48.1542 and 48.9004 | 96.7473 and 87.6169 and 107.151 and 102.3 and 127.409 | 75.1942 and 80.0887 and 89.5483 and 81.8665 and 89.4166 | 75.7649 and 76.4014 and 100.083 and 102.234 and 81.9543 | 62.3107 and 94.9036 and 99.6225 and 103.727 and 94.5305 | 107.063 and 96.7253 and 127.343 and 114.679 and 82.7444 | 77.6963 and 91.9187 and 116.522 and 86.0147 and 77.6085 | – |
| CN(CCCC(=O)N1CCC[C@@H](n2nc(-c3ccc(Oc4ccccc4)cc3)c3c(N)ncnc32)C1)CCOCCNC(=O)CNc1ccc2c(c1)C(=O)N(C1CCC(=O)NC1=O)C2=O (stereo partly shown) [RNC-10] | – | – | – | – | 20.4373 and 14.3566 and 19.5812 and 10.2077 and 15.081 | 105.787 and 111.889 and 72.4196 and 87.9176 and 69.5658 | 69.7853 and 58.8313 and 63.507 and 54.1116 and 44.6942 | 101.374 and 90.2665 and 79.5759 and 58.2825 and 70.4 | 94.3057 and 78.2807 and 83.198 and 62.2338 and 64.8242 | 98.3448 and 99.8376 and 85.8542 and 80.1905 and 70.3561 | 101.967 and 84.7346 and 87.9396 and 100.716 and 97.1814 | – |
